Reference: patent US4339379A, “N-Acrylcarnosine aluminum salts” (Nippon Chemiphar Co., Ltd., priority 1979, dated 1982)
Values joined by “and” are separate entries in the source; they are usually repeats but may differ in a detail not shown here. Identical values can stand only once.

What was measured:
[1] = tested on: Indomethacin-induced ulcer; experiment: Indomethacin-induced ulcer in rats; assay type: in vivo, male Donryu strain rats; conditions: for Ulcer index: Indomethacin (25 mg/kg s.c.)-induced ulcer, 300 mg/kg P.O. ten minutes before pylorus ligation, total length of lesions
Description: Indomethacin-induced ulcer: Groups of ten male Donryu strain rats each weighing 200 to 215 g were deprived of food for 24 hours. Then, the pylorus was ligated under ether anethesia, after which indomethacin was administered subcutaneously in an amount of 25 mg/kg to each rat. Seven hours after the administration, each of the animals was sacrificed under ether anethesia to remove its stomach, followed by immersion in a 1% formalin solution for ten minutes. The stomach which had been semi-fixed was incised along its greater curvature, and the length (mm) of each lesion formed in the mucous membrane was measured under a dissecting microscope (10×). The total length (mm) of all the lesions of each rat was indicated as an ulcer index. Test medicine samples were given orally ten minutes before the pylorus legation.

Shay's ulcer = Shay's ulcer (pylorus ligation) in rats; assay type: in vivo, male Donryu strain rats; conditions: for Ulcer index: total ulcerated area in forestomach
Description: Shay's ulcer: Groups of ten male Donryu strain rats each weighing 210 to 230 g were deprived of food for 48 hours. The pylorus of each rat was ligated according to the method of Shay et al [Gastroenterology, 5, 43-61 (1945)]. Each of the animals was allowed to stand abstained from food and water for further 14 hours and then sacrificed to remove its stomach. After collection of the gastric juice, the ulcerated area (mm^2) in the forestomach of each rat was measured under a dissecting microscope (10×). The total area (mm^2) of all the lesions of each rat was indicated as an ulcer index. Test medicine samples were given orally immediately after the pylorus ligation.

[2] = Indomethacin-induced ulcer, 300 mg/kg P.O.
[3] = rats, 1,000 mg/kg P.O. immediately after pylorus ligation

| Molecule | Ulcer index [1] | % Inhibition [1, 2] | inhibition at 300 mg/kg ([1]; Rattus norvegicus, po, Indomethacin-induced ulcer, 300 mg/kg P.O.) | inhibition at 2000 mg/kg (Shay's ulcer; Rattus norvegicus, po, rats, 2,000 mg/kg P.O.) | % Inhibition (Shay's ulcer; rats, 2,000 mg/kg P.O.) | Ulcer index (Shay's ulcer; rats, 2,000 mg/kg P.O. immediately after pylorus ligation) | % Inhibition (Shay's ulcer; rats, 1,000 mg/kg P.O.) | Ulcer index (Shay's ulcer; [3]) |
| --- | --- | --- | --- | --- | --- | --- | --- | --- |
| NCCC(=O)N[C@@H](Cc1cnc[nH]1)C(=O)O [L-Carnosine, L-carnosine] | 17.1 ± 3.1 mm | ~ 0% | – | – | – | – | – | – |
| NC(=O)CC[C@H](N)C(=O)O [L-Glutamine, L-glutamine] | 9.7 ± 3.9 mm | – | 42.3% | – | – | – | – | – |
| CC(=O)N[C@@H](CCC(N)=O)C(=O)O.[Al] [N-Acetyl-L-glutamine aluminum, N-acetyl-L-glutamine aluminum] | – | – | – | 69% | 67.7% | 0.9 ± 0.7 mm^2 and 1.0 ± 0.6 mm^2 | – | – |
| N-acetyl-DL-carnosine aluminum salt | 6.7 ± 3.0 mm | 60.1% | – | – | – | – | 75.9% | 0.7 ± 0.8 mm^2 |
| N-acetyl-L-carnosine aluminum salt [B] | 6.5 ± 2.5 mm | 61.3% | – | – | – | – | 72.4% | 0.8 ± 0.6 mm^2 |
| N-propionyl-L-carnosine aluminum salt | – | – | – | – | – | – | 74.2% | 0.8 ± 0.8 mm^2 |
| aluminum sucrose sulfate | 7.4 ± 2.8 mm | 56.0% | – | – | – | – | 72.4% and 71.0% | 0.8 ± 0.6 mm^2 and 0.9 ± 0.5 mm^2 |
